*1 amine or outer side, *2 acyl side, *3 side chain or, on linkers, in order; H or OH if unused. Where a SMILES comes first, the peptide text is derived from it. Bridges are numbered along the chain shown (N, C = ends). Roman numbers before positions name the chains, in order. Side-chain parts run from the residue outwards. [ ]: non-standard residue; d: D form. The star is where a group is joined. X32 = O=C(O)CCCCCCCCCCCCCCCCC(=O)N[C@@H](CCC(=O)NCCOCCOCCOCCOCCOCCOCCOCCOCCOCCOCCOCCCOCCC(=O)*)C(=O)O; X35 = NCCOc1ccc(C[C@H](N[*:1])C(=O)CC(Cc2ccc3ccccc3c2)C(=O)[*:2])cc1; PEG12 = NCCOCCOCCOCCOCCOCCOCCOCCOCCOCCOCCOCCOCCC(=O)O; Trp(7-Me,2,3-dihydro) = Cc1cccc2c1NCC2C[C@H](N)C(=O)O; Trp(7-Me) = Cc1cccc2c(C[C@H](N)C(=O)O)c[nH]c12; C20 diacid = O=C(O)CCCCCCCCCCCCCCCCCCC(=O)*; C18 diacid = O=C(O)CCCCCCCCCCCCCCCCC(=O)*; Phe(4-Me) = Cc1ccc(C[C@H](N)C(=O)O)cc1; γGlu = O=C(O)[C@H](CCC(=O)[*:2])N[*:1]; 2Nal = N[C@@H](Cc1ccc2ccccc2c1)C(=O)O; AEF = NCCOc1ccc(C[C@H](N)C(=O)O)cc1; X2 = C[N+](C)(C)C[C@@H](CC(=O)O)N*; 3Pal = N[C@@H](Cc1cccnc1)C(=O)O; Lys(Me) = CNCCCC[C@H](N)C(=O)O; Pen = CC(C)(S)[C@H](N)C(=O)O; Suc = O=C(CCC(=O)[*:2])[*:1]; Thp = NC1(C(=O)O)CCOCC1; X1 = C[N+](C)(C)CCCCC*; AEEA = NCCOCCOCC(=O)O; Sar = CNCC(=O)O
Legend:
[1] = target: T1, IL-23R (Homo sapiens, UniProt Q5VWK5); test: IL23R Reporter Assay; type: cell-based; conditions: HEK293 cells containing IL-23R, IL-12Rβ1 and STAT-inducible firefly luciferase reporter; 10 ng/mL IL-23 (EC90); 5 h
T1 construct: HEK293 cells containing IL-23R, IL-12Rβ1 and a firefly luciferase reporter gene driven by a STAT-inducible promoter (Promega); host or cells: HEK293
T1 sequence (Q5VWK5 24-629): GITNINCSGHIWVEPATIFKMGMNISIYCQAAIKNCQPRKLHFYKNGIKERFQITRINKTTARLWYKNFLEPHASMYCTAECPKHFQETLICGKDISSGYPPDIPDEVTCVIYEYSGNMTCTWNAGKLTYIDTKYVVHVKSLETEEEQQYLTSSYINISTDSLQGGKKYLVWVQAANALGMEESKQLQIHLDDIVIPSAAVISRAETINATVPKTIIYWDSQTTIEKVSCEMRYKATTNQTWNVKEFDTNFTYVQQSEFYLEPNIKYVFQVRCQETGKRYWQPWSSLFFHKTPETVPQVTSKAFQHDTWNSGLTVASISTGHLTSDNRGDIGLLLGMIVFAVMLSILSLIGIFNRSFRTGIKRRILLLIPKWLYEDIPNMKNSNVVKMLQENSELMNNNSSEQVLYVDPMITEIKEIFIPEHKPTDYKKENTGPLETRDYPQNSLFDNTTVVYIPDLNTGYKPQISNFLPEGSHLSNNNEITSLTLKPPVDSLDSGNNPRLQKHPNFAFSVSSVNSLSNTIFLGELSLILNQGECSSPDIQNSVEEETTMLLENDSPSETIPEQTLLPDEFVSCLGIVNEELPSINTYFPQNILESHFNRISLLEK
How it was run: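 IC50 values were fitted with a 4-parameter Hill equation to luciferase signal, scaled between IL-23-only wells (0% inhibition) and 30 μM reference inhibitor (100%). The readout was a STAT-inducible reporter in IL-23R/IL-12Rβ1 HEK293 cells, stimulated with added 10 ng/mL IL-23 (EC90) for 5 h at 37° C and developed with BioGlo.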

[2] = system: IL-23-stimulated phosphorylated STAT3 in peripheral blood mononuclear cells (PBMCs); test: PBMC pSTAT3 Assay; type: cell-based; conditions: PBMCs from healthy donors; 30 min preincubation with peptide; IL-23 5 ng/mL for 30 min; phospho-STAT3 by MSD
How it was run: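 Phospho-STAT3 quantified by Meso Scale assay in lysates of PBMCs exposed to IL-23 (5 ng/mL, 30 min, 37 °C) after 30 min peptide pretreatment. Cells were cryopreserved donor PBMCs activated 4 days with anti-CD3 plus IL-1β (100 ng/mL) and starved ~4 h; IC50 reported.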

SMILES | IC50 [1] [nM] | IC50 [2] [nM]
CC(=O)N(C)CCCC[C@@H]1NC(=O)[C@H](Cc2c[nH]c3c(C)cccc23)NC(=O)[C@H]([C@@H](C)O)NC(=O)[C@H](CC(=O)N(C)C)NC(=O)[C@@H](NC(=O)CCOCCOCCOCCOCCOCCOCCOCCOCCOCCOCCOCCOCCNC(=O)CC[C@H](NC(=O)CCCCCCCCCCCCCCCCC(=O)O)C(=O)O)C(C)(C)SSC(C)(C)[C@@H](C(=O)N[C@@H](Cc2ccc(OCCCCC[N+](C)(C)C)cc2)C(=O)N[C@@H](Cc2ccc3ccccc3c2)C(=O)NC2(C(=O)N[C@@H](CCCCN(C)C(C)=O)C(=O)N[C@@H](CC(N)=O)C(=O)N[C@@H](Cc3cccnc3)C(=O)N(C)CC(=O)N(C)C)CCOCC2)NC1=O [compound 95, HOC18gEPEG12CO-Pen(3)-N(N(Me)2)-T-7MeW-K(NMeAc)-Pen(3)-TMAPF-2Nal-THP-K(NMeAc)-N-3Pya-Sar-CON(Me)2] ({C18 diacid-γGlu-PEG12}-[Pen]D(NMe2)T[Trp(7-Me)][Lys(Me)](Ac)[Pen]Y(X1)[2Nal][Thp][Lys(Me)](Ac)N[3Pal][Sar]-NMe2; disulfide 1-6) | < 50 | < 0.5
CC(=O)NCCCC[C@@H]1NC(=O)[C@H](CC2CNc3c(C)cccc32)NC(=O)[C@H]([C@@H](C)O)NC(=O)[C@H](CC(N)=O)NC(=O)[C@@H](NC(C)=O)C(C)(C)SSC(C)(C)[C@@H](C(=O)N[C@@H](Cc2ccc(C)cc2)C(=O)N[C@@H](Cc2ccc3ccccc3c2)C(=O)NC2(C(=O)N[C@@H](CCCCNC(=O)CCOCCOCCOCCOCCOCCOCCOCCOCCOCCOCCOCCOCCNC(=O)CC[C@H](NC(=O)CCCCCCCCCCCCCCCCCCC(=O)O)C(=O)O)C(=O)N[C@@H](CC(N)=O)C(=O)N[C@@H](Cc3cccnc3)C(=O)N(C)CC(N)=O)CCOCC2)NC1=O (stereo partly drawn) [compound 162, MeCO-Pen(3)-N-T-7MeW-K(Ac)-Pen(3)-AEF-2Nal-THP-K(PEG12gEC20OH)-N-3Pya-Sar-CONH2] (Ac-[Pen]NT[Trp(7-Me,2,3-dihydro)]K(Ac)[Pen][Phe(4-Me)][2Nal][Thp]K([PEG12-γGlu-C20 diacid])N[3Pal][Sar]-NH2; disulfide 1-6) | 50 to 500 | < 0.5
CC(=O)NCCCC[C@@H]1NC(=O)[C@H](Cc2c[nH]c3c(C)cccc23)NC(=O)[C@H]([C@@H](C)O)NC(=O)[C@H](CC(N)=O)NC(=O)[C@@H](NC(=O)[C@@H](CCCNC(=N)N)NC(C)=O)C(C)(C)SSC(C)(C)[C@@H](C(=O)N[C@@H](Cc2ccc(OCCN)cc2)C(=O)N[C@@H](Cc2ccc3ccccc3c2)C(=O)NC2(C(=O)N[C@@H](CCC(=O)O)C(=O)N[C@@H](CC(N)=O)C(=O)N[C@@H](Cc3cccnc3)C(=O)N(C)CC(=O)N[C@@H](CCCCNC(=O)CCOCCCOCCOCCOCCOCCOCCOCCOCCOCCOCCOCCOCCNC(=O)CC[C@H](NC(=O)CCCCCCCCCCCCCCCCC(=O)O)C(=O)O)C(N)=O)CCOCC2)NC1=O [compound 133, MeCO-r-Pen(3)-N-T-7MeW-K(Ac)-Pen(3)-AEF-2Nal-THP-E-N-3Pya-Sar-K(PEG12gEC18OH)-CONH2] (Ac-[dR][Pen]NT[Trp(7-Me)]K(Ac)[Pen][AEF][2Nal][Thp]EN[3Pal][Sar]K(X32)-NH2; disulfide 2-7) | < 50 | < 0.5
CC(=O)N[C@H](CCCNC(=N)N)C(=O)N[C@@H]1C(=O)N[C@@H](CC(N)=O)C(=O)N[C@@H]([C@@H](C)O)C(=O)N[C@@H](Cc2c[nH]c3c(C)cccc23)C(=O)N[C@@H](CCCCNC(=O)CCC(=O)N[C@H](CC(=O)O)C[N+](C)(C)C)C(=O)N[C@H](C(=O)N[C@@H](Cc2ccc(OCCN)cc2)C(=O)N[C@@H](Cc2ccc3ccccc3c2)C(=O)NC2(C(=O)N[C@@H](CCCCNC(=O)COCCOCCNC(=O)COCCOCCNC(=O)CC[C@H](NC(=O)CCCCCCCCCCCCCCCCC(=O)O)C(=O)O)C(=O)N[C@@H](CC(N)=O)C(=O)N[C@@H](Cc3cccnc3)C(=O)N(C)CC(N)=O)CCOCC2)C(C)(C)SSC1(C)C [compound 48, MeCO-r-Pen(3)-N-T-7MeW-K(d)-Pen(3)-AEF-2Nal-THP-K(PEG2PEG2gEC18OH)-N-3Pya-Sar-CONH2] (Ac-[dR][Pen]NT[Trp(7-Me)]K([Suc-X2])[Pen][AEF][2Nal][Thp]K([AEEA-AEEA-γGlu-C18 diacid])N[3Pal][Sar]-NH2; disulfide 2-7) | 50 to 500 | < 0.5
CC(=O)NCCCC[C@@H]1NC(=O)[C@H](Cc2c[nH]c3c(C)cccc23)NC(=O)[C@H]([C@@H](C)O)NC(=O)[C@H](CC(N)=O)NC(=O)[C@@H](NC(=O)[C@@H](CCCNC(=N)N)NC(=O)COCCOCCNC(=O)COCCOCCNC(=O)CC[C@H](NC(=O)CCCCCCCCCCCCCCCCC(=O)O)C(=O)O)C(C)(C)SSC(C)(C)[C@@H](C(=O)N[C@@H](Cc2ccc(OCCCCC[N+](C)(C)C)cc2)C(=O)N[C@@H](Cc2ccc3ccccc3c2)C(=O)NC2(C(=O)N[C@@H](CCC(=O)O)C(=O)N[C@@H](CC(N)=O)C(=O)N[C@@H](Cc3cccnc3)C(=O)N(C)CC(N)=O)CCOCC2)NC1=O [compound 83, HOC18gEPEG2PEG2CO-r-Pen(3)-N-T-7MeW-K(Ac)-Pen(3)-TMAPF-2Nal-THP-E-N-3Pya-Sar-CONH2] ({C18 diacid-γGlu-AEEA-AEEA}-[dR][Pen]NT[Trp(7-Me)]K(Ac)[Pen]Y(X1)[2Nal][Thp]EN[3Pal][Sar]-NH2; disulfide 2-7) | < 50 | < 0.5
CC(=O)NCCCC[C@@H]1NC(=O)[C@H](Cc2c[nH]c3c(C)cccc23)NC(=O)[C@H]([C@@H](C)O)NC(=O)[C@H](CC(N)=O)NC(=O)[C@@H](NC(C)=O)C(C)(C)SSC(C)(C)[C@@H](C(=O)N[C@@H](Cc2ccc(OCCN)cc2)C(=O)N[C@@H](Cc2ccc3ccccc3c2)C(=O)NC2(C(=O)N[C@@H](CCCCNC(C)=O)C(=O)N[C@@H](CC(N)=O)C(=O)N[C@@H](Cc3cccnc3)C(=O)N(C)CC(=O)N[C@@H](CCCCNC(=O)CCOCCOCCOCCOCCOCCOCCOCCOCCOCCOCCOCCOCCNC(=O)CC[C@H](NC(=O)CCCCCCCCCCCCCCCCCCC(=O)O)C(=O)O)C(N)=O)CCOCC2)NC1=O [compound 101, MeCO-Pen(3)-N-T-7MeW-K(Ac)-Pen(3)-AEF-2Nal-THP-K(Ac)-N-3Pya-Sar-K(PEG12gEC20OH)-CONH2] | < 50 | < 0.5
CC(=O)NCCCC[C@@H]1NC(=O)[C@H](Cc2c[nH]c3c(C)cccc23)NC(=O)[C@H]([C@@H](C)O)NC(=O)[C@H](CCCCNC(=O)CCC(=O)N[C@H](CC(=O)O)C[N+](C)(C)C)NC(=O)[C@@H](NC(=O)[C@@H](CCCNC(=N)N)NC(C)=O)C(C)(C)SSC(C)(C)[C@@H](C(=O)N[C@@H](Cc2ccc(OCCN)cc2)C(=O)N[C@@H](Cc2ccc3ccccc3c2)C(=O)NC2(C(=O)N[C@@H](CCC(=O)O)C(=O)N[C@@H](CC(N)=O)C(=O)N[C@@H](Cc3cccnc3)C(=O)N(C)CC(=O)N[C@@H](CCCCNC(=O)COCCOCCNC(=O)COCCOCCNC(=O)CC[C@H](NC(=O)CCCCCCCCCCCCCCCCC(=O)O)C(=O)O)C(N)=O)CCOCC2)NC1=O [compound 53, MeCO-r-Pen(3)-K(d)-T-7MeW-K(Ac)-Pen(3)-AEF-2Nal-THP-E-N-3Pya-Sar-K(PEG2PEG2gEC18OH)-CONH2] (Ac-[dR][Pen]K([Suc-X2])T[Trp(7-Me)]K(Ac)[Pen][AEF][2Nal][Thp]EN[3Pal][Sar]K([AEEA-AEEA-γGlu-C18 diacid])-NH2; disulfide 2-7) | 50 to 500 | < 0.5
CC(=O)NCCCC[C@@H]1NC(=O)[C@H](Cc2c[nH]c3c(C)cccc23)NC(=O)[C@H]([C@@H](C)O)NC(=O)[C@H](CC(N)=O)NC(=O)[C@@H](NC(C)=O)C(C)(C)SSC(C)(C)[C@@H](C(=O)N[C@@H](Cc2ccc(OCCN)cc2)C(=O)CC(Cc2ccc3ccccc3c2)C(=O)NC2(C(=O)N[C@@H](CCC(=O)O)C(=O)N[C@@H](CC(N)=O)C(=O)N[C@@H](Cc3cccnc3)C(=O)N(C)CC(=O)N[C@@H](CCCCNC(=O)COCCOCCNC(=O)COCCOCCNC(=O)CC[C@H](NC(=O)CCCCCCCCCCCCCCCCC(=O)O)C(=O)O)C(=O)N(C)C)CCOCC2)NC1=O (stereo partly drawn) [compound 149, MeCO-Pen(3)-N-T-7MeW-K(Ac)-Pen(3)-AEF-2Nal-THP-E-N-3Pya-Sar-K(PEG2PEG2gEC18OH)-CON(Me)2] (I: Ac-[Pen]NT[Trp(7-Me)]K(Ac)[Pen] / II: [Thp]EN[3Pal][Sar]K([AEEA-AEEA-γGlu-C18 diacid])-NMe2; disulfide I:1-I:6; linker I:C-II:N via X35) | ≥ 500 | ≥ 5
